What follows are molecules tested against STING (Homo sapiens, UniProt Q86WV6, G230A/H232R/R293Q/R71H) (assay: STING reporter assay in THP1-Dual KO-IFNAR2 cells (2′3′cGAMP stimulation, luciferase reporter)). Settings: 15 μM 2′3′cGAMP stimulation, 24 h, read-out: Pharmaron, THP1_IFNAR2 STING 24 h Luci Normalized: GeoMean EC50.
Type: cell-based
Method in brief: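 THP1-Dual KO-IFNAR2 cells (2×10E6 cells/mL) with compounds at 0.0017-100 μM final, stimulated with 15 μM final 2′3′cGAMP delivered by Lipofectamine 2000; 24 h at 37 °C. Luciferase in supernatant read with QUANTI-Luc Plus; EC50 derived from luminescence.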

STING, sequence (Q86WV6 whole entry R71H/G230A/H232R/R293Q): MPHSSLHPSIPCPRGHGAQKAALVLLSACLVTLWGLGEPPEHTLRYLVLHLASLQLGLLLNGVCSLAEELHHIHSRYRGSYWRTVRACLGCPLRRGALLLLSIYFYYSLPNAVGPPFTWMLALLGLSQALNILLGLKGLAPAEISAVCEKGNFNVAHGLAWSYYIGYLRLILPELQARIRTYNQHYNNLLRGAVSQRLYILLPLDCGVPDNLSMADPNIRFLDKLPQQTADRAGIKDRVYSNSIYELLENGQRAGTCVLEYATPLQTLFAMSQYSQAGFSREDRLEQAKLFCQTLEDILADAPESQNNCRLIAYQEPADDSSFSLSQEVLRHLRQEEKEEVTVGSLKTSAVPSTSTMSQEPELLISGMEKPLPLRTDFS

SMILES	EC50 [nM]
CC(=O)Nc1c[nH]c2ccc(OCCc3cnc(N4CCN(CC(F)(F)F)CC4)c(F)c3)cc12 [Compound 253, N-(5-(2-(5-fluoro-6-(4-(2,2,2-trifluoroethyl)piperazin-1-yl)pyridin-3-yl)ethoxy)-1H-indol-3-yl)acetamide]	1000 to 5000
CC(=O)Nc1c[nH]c2ccc(OCCc3cnc(N4CCC(F)(F)CC4)c(F)c3)cc12 [Compound 254, N-(5-(2-(6-(4,4-difluoropiperidin-1-yl)-5-fluoropyridin-3-yl)ethoxy)-1H-indol-3-yl)acetamide]	40 to 200
CC(=O)Nc1c[nH]c2ccc(CCOc3ccc(C(F)(F)F)cc3)nc12 [Compound 255, N-(5-(2-(4-(trifluoromethyl)phenoxy)ethyl)-1H-pyrrolo[3,2-b]pyridin-3-yl)acetamide]	1000 to 5000
CC(=O)Nc1c[nH]c2ccc(CCSc3ccc(C(F)(F)F)cc3)cc12 [Compound 256, N-(5-(2-((4-(trifluoromethyl)phenyl)thio)ethyl)-1H-indol-3-yl)acetamide]	200 to 1000
CC(=O)Nc1c[nH]c2ccc(OCCC3CCN(c4ccc(C(F)(F)F)cn4)CC3)cc12 [Compound 257, N-(5-(2-(1-(5-(trifluoromethyl)pyridin-2-yl)piperidin-4-yl)ethoxy)-1H-indol-3-yl)acetamide]	200 to 1000
COCC(=O)Nc1c[nH]c2ccc(O[C@H]3C[C@H](c4ccc(C(F)(F)F)cc4)C3)cc12 [Compound 258, 2-methoxy-N-(5-(trans-3-(4-(trifluoromethyl)phenyl)cyclobutoxy)-1H-indol-3-yl)acetamide]	40 to 200
CC(=O)Nc1c[nH]c2c(C)cc(CCOc3ccc(C(F)(F)F)cc3)nc12 [Compound 259, N-(7-methyl-5-(2-(4-(trifluoromethyl)phenoxy)ethyl)-1H-pyrrolo[3,2-b]pyridin-3-yl)acetamide]	1000 to 5000
COCC(=O)Nc1c[nH]c2ccc(O[C@H]3C[C@@H](c4ccc(C(F)(F)F)cc4)C3)cc12 [Compound 260, 2-methoxy-N-(5-(cis-3-(4-(trifluoromethyl)phenyl)cyclobutoxy)-1H-indol-3-yl)acetamide]	200 to 1000
CC1(C(=O)Nc2c[nH]c3ccc(O[C@H]4C[C@H](c5ccc(C(F)(F)F)cc5)C4)cc23)CC1 [Compound 261, 1-methyl-N-(5-(trans-3-(4-(trifluoromethyl)phenyl)cyclobutoxy)-1H-indol-3-yl)cyclopropane-1-carboxamide]	40 to 200
CC(=O)Nc1c[nH]c2ccc(OCCC34CC(c5ccccc5)(C3)C4)cc12 [Compound 262, N-(5-(2-(3-phenylbicyclo[1.1.1]pentan-1-yl)ethoxy)-1H-indol-3-yl)acetamide]	40 to 200
CC1(C(=O)Nc2c[nH]c3ccc(O[C@H]4C[C@@H](c5ccc(C(F)(F)F)cc5)C4)cc23)CC1 [Compound 263, 1-methyl-N-(5-(cis-3-(4-(trifluoromethyl)phenyl)cyclobutoxy)-1H-indol-3-yl)cyclopropane-1-carboxamide]	200 to 1000
CC(=O)Nc1c[nH]c2c(C)cc(CCOc3ccc(C(F)(F)F)cc3)cc12 [Compound 264, N-(7-methyl-5-(2-(4-(trifluoromethyl)phenoxy)ethyl)-1H-indol-3-yl)acetamide]	1000 to 5000
CC(=O)Nc1c[nH]c2ccc(CNS(=O)(=O)c3ccc(C(F)(F)F)cc3)cc12 [Compound 265, N-(5-(((4-(trifluoromethyl)phenyl)sulfonamido)methyl)-1H-indol-3-yl)acetamide]	5000 to 100000
O=C(Nc1c[nH]c2ccc(O[C@H]3C[C@@H](c4ccc(C(F)(F)F)cc4)C3)cc12)C1CC1 [Compound 266, N-(5-(cis-3-(4-(trifluoromethyl)phenyl)cyclobutoxy)-1H-indol-3-yl)cyclopropanecarboxamide]	40 to 200
CC(=O)Nc1c[nH]c2ncc(OCCc3ccc(C(F)(F)F)cc3)cc12 [Compound 267, N-(5-(4-(trifluoromethyl)phenethoxy)-1H-pyrrolo[2,3-b]pyridin-3-yl)acetamide]	1000 to 5000
CC(=O)Nc1c[nH]c2ccc(COCC3CCN(CC(F)(F)F)CC3)cc12 [Compound 268, N-(5-(((1-(2,2,2-trifluoroethyl)piperidin-4-yl)methoxy)methyl)-1H-indol-3-yl)acetamide]	1000 to 5000
CC(=O)Nc1c[nH]c2c(F)cc(CCOc3ccc(C(F)(F)F)cc3)cc12 [Compound 270, N-(7-fluoro-5-(2-(4-(trifluoromethyl)phenoxy)ethyl)-1H-indol-3-yl)acetamide]	1000 to 5000
CC(=O)Nc1c[nH]c2ncc(COCc3ccc(C(F)(F)F)cc3)cc12 [Compound 271, N-(5-(((4-(trifluoromethyl)benzyl)oxy)methyl)-1H-pyrrolo[2,3-b]pyridin-3-yl)acetamide]	1000 to 5000
CC(=O)Nc1c[nH]c2c(C)cc(COCc3ccc(C(F)(F)F)cc3)cc12 [Compound 272, N-(7-methyl-5-(((4-(trifluoromethyl)benzyl)oxy)methyl)-1H-indol-3-yl)acetamide]	1000 to 5000

SMILES	EC50 [nM]
COCC(=O)Nc1c[nH]c2ccc(COc3ccc(C(F)(F)F)cc3)cc12 [Compound 273, 2-methoxy-N-(5-((4-(trifluoromethyl)phenoxy)methyl)-1H-indol-3-yl)acetamide]	40 to 200
CC(=O)Nc1c[nH]c2ccc(COC[C@@H]3[C@H]4CN(CC(F)(F)F)C[C@@H]34)cc12 [Compound 274, N-(5-((((1R,5S,6r)-3-(2,2,2-trifluoroethyl)-3-azabicyclo[3.1.0]hexan-6-yl)methoxy)methyl)-1H-indol-3-yl)acetamide]	1000 to 5000
CC(=O)Nc1c[nH]c2ccc(CCC(C)(C)C3CCN(CC(F)(F)F)CC3)cc12 [Compound 275, N-(5-(3-methyl-3-(1-(2,2,2-trifluoroethyl)piperidin-4-yl)butyl)-1H-indol-3-yl)acetamide]	1000 to 5000
CC(=O)Nc1c[nH]c2c(F)cc(COCc3ccc(C(F)(F)F)cc3)cc12 [Compound 276, N-(7-fluoro-5-(((4-(trifluoromethyl)benzyl)oxy)methyl)-1H-indol-3-yl)acetamide]	1000 to 5000
CC(=O)Nc1c[nH]c2c(F)cc(OCCC3CCN(CC(F)(F)F)CC3)cc12 [Compound 277, N-(7-fluoro-5-(2-(1-(2,2,2-trifluoroethyl)piperidin-4-yl)ethoxy)-1H-indol-3-yl)acetamide]	5000 to 100000
CC(=O)Nc1c[nH]c2ccc(OCCC3(O)CCC(F)(F)CC3)cc12 [Compound 278, N-(5-(2-(4,4-difluoro-1-hydroxycyclohexyl)ethoxy)-1H-indol-3-yl)acetamide]	5000 to 100000
CC(=O)Nc1c[nH]c2c(C)cc(OCCC3CCN(CC(F)(F)F)CC3)cc12 [Compound 281, N-(7-methyl-5-(2-(1-(2,2,2-trifluoroethyl)piperidin-4-yl)ethoxy)-1H-indol-3-yl)acetamide]	5000 to 100000
CC(=O)Nc1c[nH]c2ccc(C(O)CCc3ccc(C(F)(F)F)cc3)cc12 (centres unmarked) [Compound 282, N-(5-(1-hydroxy-3-(4-(trifluoromethyl)phenyl)propyl)-1H-indol-3-yl)acetamide]	1000 to 5000
CC(=O)Nc1c[nH]c2ccc(OCC[C@@H]3C[C@@H]4CN(CC(F)(F)F)C[C@@H]4C3)cc12 [Compound 283, N-(5-(2-((3aR,5r,6aS)-2-(2,2,2-trifluoroethyl)octahydrocyclopenta[c]pyrrol-5-yl)ethoxy)-1H-indol-3-yl)acetamide]	200 to 1000
CC(=O)Nc1c[nH]c2ccc(CC(O)Cc3ccc(C(F)(F)F)cc3)cc12 (centres unmarked) [Compound 284, N-(5-(2-hydroxy-3-(4-(trifluoromethyl)phenyl)propyl)-1H-indol-3-yl)acetamide]	200 to 1000
CC(=O)Nc1c[nH]c2ccc(CC(C)Oc3ccc(C(F)(F)F)cc3)cc12 (centres unmarked) [Compound 287, N-(5-(2-(4-(trifluoromethyl)phenoxy)propyl)-1H-indol-3-yl)acetamide]	1000 to 5000
CC(=O)Nc1c[nH]c2ccc(CCOC3CCN(CC(F)(F)F)CC3)cc12 [Compound 288, N-(5-(2-((1-(2,2,2-trifluoroethyl)piperidin-4-yl)oxy)ethyl)-1H-indol-3-yl)acetamide]	5000 to 100000
CC(=O)Nc1c[nH]c2ccc(OCC3(c4ccc(C(F)(F)F)cc4)CC3)cc12 [Compound 289, N-(5-((1-(4-(trifluoromethyl)phenyl)cyclopropyl)methoxy)-1H-indol-3-yl)acetamide]	1000 to 5000
CCC(=O)Nc1c[nH]c2ccc(Cc3cc(C)ccc3O)cc12 [Compound 290, N-(5-(2-hydroxy-5-methylbenzyl)-1H-indol-3-yl)propionamide]	5000 to 100000
CCC(=O)Nc1c[nH]c2ccc(COc3ccc(C)cc3)cc12 [Compound 291, N-(5-((p-tolyloxy)methyl)-1H-indol-3-yl)propionamide]	200 to 1000
CC(=O)Nc1c[nH]c2ccc(OCC[C@@H]3C[C@@H]4CN(C)C[C@@H]4C3)cc12 [Compound 292, N-(5-(2-((3aR,5r,6aS)-2-methyloctahydrocyclopenta[c]pyrrol-5-yl)ethoxy)-1H-indol-3-yl)acetamide]	5000 to 100000
CC(=O)Nc1c[nH]c2ccc(CCO[C@@H]3C[C@@H]4CN(CC(F)(F)F)C[C@@H]4C3)cc12 [Compound 293]	5000 to 100000
CC1(C(=O)Nc2c[nH]c3ccc(OCc4ccc(C(F)(F)F)cc4)cc23)CCC1 [Compound 294, 1-methyl-N-(5-((4-(trifluoromethyl)benzyl)oxy)-1H-indol-3-yl)cyclobutane-1-carboxamide]	40 to 200
CO[C@H]1C[C@H](C(=O)Nc2c[nH]c3ccc(O[C@H]4C[C@@H](c5ccc(C(F)(F)F)cc5)C4)cc23)C1 [Compound 295, trans-3-methoxy-N-(5-(cis-3-(4-(trifluoromethyl)phenyl)cyclobutoxy)-1H-indol-3-yl)cyclobutane-1-carboxamide]	40 to 200

— US12503436B2, “Compounds and compositions for treating conditions associated with STING activity” (NOVARTIS PHARMA AG, priority 2021, dated 2025)
